From PMC6030096, “Synergy of Physico-chemical and Biological Experiments for Developing a Cyclooxygenase-2 Inhibitor” (Scientific Reports, 2018)
Like-named read-outs stand apart in the source and are kept apart here.

Key:
Type in all cases: biochemical
[1] = molecular target: T1, COX-1 (Ovis aries, UniProt P05979); assay: COX-1 enzyme immunoassay (Cayman inhibitor screening kit)
T1 construct: purchased Cayman Chemical Co. 560131
T1 sequence (P05979 25-600): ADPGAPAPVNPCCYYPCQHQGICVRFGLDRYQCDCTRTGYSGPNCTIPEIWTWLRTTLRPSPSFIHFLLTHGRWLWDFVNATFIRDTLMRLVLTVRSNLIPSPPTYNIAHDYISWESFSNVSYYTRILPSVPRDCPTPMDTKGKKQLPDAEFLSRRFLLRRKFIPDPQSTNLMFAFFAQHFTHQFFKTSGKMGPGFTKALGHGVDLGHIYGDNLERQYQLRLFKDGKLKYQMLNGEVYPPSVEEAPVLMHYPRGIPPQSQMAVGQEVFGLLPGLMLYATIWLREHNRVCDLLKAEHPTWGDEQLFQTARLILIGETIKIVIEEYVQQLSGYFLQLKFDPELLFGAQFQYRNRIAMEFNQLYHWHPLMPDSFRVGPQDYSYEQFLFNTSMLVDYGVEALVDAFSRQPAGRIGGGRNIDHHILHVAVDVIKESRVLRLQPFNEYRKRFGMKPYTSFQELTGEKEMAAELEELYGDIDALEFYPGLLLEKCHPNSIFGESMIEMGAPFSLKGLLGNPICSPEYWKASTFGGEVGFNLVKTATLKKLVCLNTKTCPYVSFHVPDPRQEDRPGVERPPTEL
Method: (§1) Principally, the catalytic activity of COX-1/2 is slowed down in the presence of its inhibitor and quantitatively, it is inversely proportional to the amount of prostaglandin produced in the presence of inhibitor.
(§2) The enzyme inhibition screening assay kits for COX-1/2 and 5-LOX with item no. […] The 100% initial activity tubes for the two enzymes contained 10 µL heme and 10 µL of the enzyme in 160 µL reaction buffer. Then 10 µL inhibitor (compound of above mentioned concentrations) was added to the inhibitor tubes for the two enzymes and 10 µL of vehicle (DMSO) was added to 100% initial activity and background tubes. All the tubes were incubated for 10 min at 37 °C and the reaction was started by adding 10 µL arachidonic acid to all the reaction tubes. After incubation of the reaction vials for 2 min at 37 °C, the enzyme catalysis was stopped by adding 30 µL saturated stannous chloride solution to each test tube and solutions were kept at 0–4 °C. For EIA (enzyme immunoassay) procedure: the EIA buffers and assay specific reagents were prepared as written in the manual. In the COX dilutions, two test tubes labelled as BC1 and BC2 were taken to prepare background samples. Each tube contained 990 µL of EIA buffer and 10 µL of background COX-1 for BC1 and 10 µL of background COX-2 for BC2. The samples for 100% initial activity were diluted in three vials labelled IA1, IA2 and IA3 for each enzyme. IA1 contained 990 µL EIA buffer and 10 µL enzyme, IA2 has 950 µL buffer and 50 µL solution of IA1 (1:2000 dilution of original sample) and IA3 carried 500 µL of buffer and 500 µL of IA2 solution (1:4000 dilution of original sample). Each solution was thoroughly mixed. Solutions of IA2 and IA3 were used for the assaying. […] C2 contained 950 µL buffer and 50 µL solution of C1 (1:2000 dilution of original sample) and vial C3 was charged with 500 µL buffer and 500 µL solution from C2 (1: 4000 dilution of original sample). Only C2 and C3 were run in the assay. After all the reaction dilutions, these were then subjected to 96 wells plate. The wells were divided as: 2 blank wells, 2 NSB wells (non-specific binding), 3 B0 wells (maximum binding), one TA well (total activity), 16 wells for standards (S1–S8 in repeat), 2 BC1 and 2 BC2 wells. Compounds (inhibitors) were put in all the other wells. The sequence for the addition of reagents onto the plate was as per the protocol of the assay kit. […] For developing the plate; it was emptied and washed with wash buffer 5 times followed by the addition of 200 µL Ellman’s reagent to each well. 5 µL tracer was added to the TA well. Then the plate was covered and left for 60 mins for development in dark. After the respective time period the cover was removed and the plate was read at 420 nm. %B/Bo (i.e. % sample or maximum bound) value for standards S1-S8 and each sample was determined from the absorbance values obtained according to the calculation given in the protocol. The amount of prostaglandins formed during the enzymatic reaction was calculated from the values of %B/Bo for all the compounds at all concentrations with the help of the standard curve (plotted between %B/Bo of standards and raw data given in the protocol). Then the prostaglandin formed at each concentration of all the compounds and percentage inhibition values were calculated. The graph between percent inhibition of the enzyme and corresponding concentration of the compound provided IC50 values for the compounds.

[2] = molecular target: T2, 5-LOX (Soybean lipoxygenase) (Glycine max, UniProt P08170); assay: Lipoxygenase inhibitory activity assay
T2 construct: purchased Cayman Chemical Co. 760700
T2 sequence (P08170 1-839): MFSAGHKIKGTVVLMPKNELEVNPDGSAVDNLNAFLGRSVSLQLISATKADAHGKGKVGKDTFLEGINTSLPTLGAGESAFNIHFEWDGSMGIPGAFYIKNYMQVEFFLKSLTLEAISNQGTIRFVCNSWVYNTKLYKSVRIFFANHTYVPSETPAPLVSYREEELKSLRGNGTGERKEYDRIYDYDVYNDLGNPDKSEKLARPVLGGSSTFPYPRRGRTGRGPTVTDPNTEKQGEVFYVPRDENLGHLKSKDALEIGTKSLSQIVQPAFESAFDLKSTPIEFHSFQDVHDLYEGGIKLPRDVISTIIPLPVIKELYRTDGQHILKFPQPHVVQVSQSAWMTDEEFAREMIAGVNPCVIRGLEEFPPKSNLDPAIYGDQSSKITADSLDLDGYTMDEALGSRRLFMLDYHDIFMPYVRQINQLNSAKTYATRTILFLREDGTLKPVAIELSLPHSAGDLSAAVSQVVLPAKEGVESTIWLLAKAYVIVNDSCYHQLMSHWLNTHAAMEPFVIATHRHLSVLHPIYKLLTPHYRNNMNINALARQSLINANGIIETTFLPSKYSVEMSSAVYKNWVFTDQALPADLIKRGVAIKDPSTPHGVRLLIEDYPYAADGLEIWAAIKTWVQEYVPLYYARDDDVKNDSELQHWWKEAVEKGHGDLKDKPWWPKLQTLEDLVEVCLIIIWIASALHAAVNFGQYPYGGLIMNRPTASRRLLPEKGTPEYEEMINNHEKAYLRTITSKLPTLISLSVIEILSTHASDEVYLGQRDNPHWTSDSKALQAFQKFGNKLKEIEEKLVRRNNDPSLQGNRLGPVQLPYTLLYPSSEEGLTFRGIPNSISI
Method: 10 µL of the compound of each concentration was mixed with 90 µL 5-LOX (Soybean lipoxygenase in assay buffer) in the specified wells of the 96-well plate. Two wells containing assay buffer and AA acted as blanks whereas four wells, each carrying enzyme and AA, were positive controls. 10 µL AA was added to each test well and the plate was shaken for 5 min. Chromogen (100 µL) was added to each well and the plate was again shaken for 5 min. The absorbance of each well at 490 nm was recorded on microplate scanning spectrophotometer. As per the protocol given with the assay kit, the 5-LOX inhibitory activity for each compound at each concentration was determined using the mean of the two values (duplicate experiments) with deviation <5%.

[3] = molecular target: T3, COX-2 (Homo sapiens, UniProt P35354); assay: COX-2 enzyme immunoassay (Cayman inhibitor screening kit); parameters: purchased Cayman Chemical Co. 560131; conditions: for Selectivity index: SI = IC50 (COX-1)/ IC50 (COX-2); for IC50: enzyme immunoassay, average of three experiments
T3 sequence (P35354 18-604): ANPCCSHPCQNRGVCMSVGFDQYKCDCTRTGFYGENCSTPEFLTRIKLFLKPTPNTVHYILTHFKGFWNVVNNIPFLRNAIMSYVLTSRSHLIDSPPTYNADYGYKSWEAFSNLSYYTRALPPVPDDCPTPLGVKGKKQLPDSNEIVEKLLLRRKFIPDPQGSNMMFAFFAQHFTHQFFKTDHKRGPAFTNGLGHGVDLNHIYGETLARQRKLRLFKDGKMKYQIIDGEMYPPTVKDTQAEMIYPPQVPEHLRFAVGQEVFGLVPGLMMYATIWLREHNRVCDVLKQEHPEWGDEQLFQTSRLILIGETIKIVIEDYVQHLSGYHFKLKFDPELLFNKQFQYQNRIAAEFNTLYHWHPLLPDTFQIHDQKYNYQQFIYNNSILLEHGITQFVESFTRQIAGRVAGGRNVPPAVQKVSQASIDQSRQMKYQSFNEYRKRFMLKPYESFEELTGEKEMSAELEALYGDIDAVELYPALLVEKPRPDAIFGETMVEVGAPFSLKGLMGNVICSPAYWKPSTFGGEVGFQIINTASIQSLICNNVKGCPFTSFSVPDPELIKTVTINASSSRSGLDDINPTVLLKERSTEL
Method: as §1, §2

[4] = enzyme immunoassay, average of three experiments, read-out: IC50 COX-1
[5] = soybean lipoxygenase, duplicate, read-out: IC50 5-LOX

## CN1C(=O)C(=Cc2cn(C[C@@H](O)Cn3c4ccccc4c(=O)c4ccccc43)c3ccccc23)C(=O)N(C)C1=O [(R)-3b]
[1]
  IC50: 1000 ± 200 nM
[2]
  IC50: 2000 ± 180 nM
[3]
  Selectivity index: 10
  IC50: 100 ± 70 nM

## O=C1C(=Cc2cn(C[C@@H](O)Cn3c4ccccc4c(=O)c4ccccc43)c3ccccc23)c2ccccc2N1c1c(Cl)cccc1Cl [(R)-3d]
[1]; [4]
  IC50: > 10000 nM
[2]; [5]
  IC50: 100 ± 60 nM

## O=C1NC(=O)C(=Cc2cn(CCCCn3c4ccccc4c(=O)c4ccccc43)c3ccccc23)C(=O)N1 [Compound 4b]
[1]
  IC50: > 10000 nM
[2]
  IC50: 70 ± 22 nM
[3]
  IC50: 8000 ± 420 nM

## O=C1C(=Cc2cn(C[C@H](O)Cn3c4ccccc4c(=O)c4ccccc43)c3ccccc23)c2ccccc2N1c1c(Cl)cccc1Cl [(S)-3d]
[1]; [4]
  IC50: 60000 ± 4500 nM
[2]; [5]
  IC50: 600 ± 39 nM
[3]
  Selectivity index: 10
  IC50: 6000 ± 500 nM

## O=C1Nc2ccccc2C1=Cc1cn(C[C@@H](O)Cn2c3ccccc3c(=O)c3ccccc32)c2ccccc12 [(R)-3c]
[1]; [4]
  IC50: 8000 ± 380 nM
[2]; [5]
  IC50: 600 ± 42 nM
[3]
  Selectivity index: 0.1
  IC50: 80000 ± 7000 nM

## CC1=NN(c2cccc(Cl)c2)C(=O)C1=Cc1cn(C[C@@H](O)Cn2c3ccccc3c(=O)c3ccccc32)c2ccccc12 [(R)-3e]
[2]; [5]
  IC50: 300 ± 130 nM

## O=C1Nc2ccccc2C1=Cc1cn(CCCCn2c3ccccc3c(=O)c3ccccc32)c2ccccc12 [Compound 4d]
[1]; [4]
  IC50: 4000 ± 180 nM
[2]; [5]
  IC50: 200 ± 90 nM
[3]
  Selectivity index: 1.33
  IC50: 3000 ± 220 nM

## CC1=NN(c2cccc(Cl)c2)C(=O)C1=Cc1cn(CCCn2c3ccccc3c(=O)c3ccccc32)c2ccccc12 [Compound 4e]
[1]; [4]
  IC50: > 10000 nM
[2]; [5]
  IC50: 400 ± 15 nM
[3]
  Selectivity index: >1.11
  IC50: 9000 ± 550 nM

## CN1C(=O)C(=Cc2cn(C[C@H](O)Cn3c4ccccc4c(=O)c4ccccc43)c3ccccc23)C(=O)N(C)C1=O [(S)-3b]
[1]
  IC50: 700 ± 50 nM
[2]
  IC50: 90 ± 12 nM
[3]
  IC50: 300 ± 180 nM

## CC1=NN(c2cccc(Cl)c2)C(=O)C1=Cc1cn(CCCCn2c3ccccc3c(=O)c3ccccc32)c2ccccc12 [Compound 4f]
[2]; [5]
  IC50: 100 ± 70 nM
[3]
  IC50: 40000 ± 3800 nM

## CC1=NN(c2cccc(Cl)c2)C(=O)C1=Cc1cn(C[C@H](O)Cn2c3ccccc3c(=O)c3ccccc32)c2ccccc12 [(S)-3e]
[2]; [5]
  IC50: 700 ± 38 nM

## O=C1NC(=O)C(=Cc2cn(C[C@@H](O)Cn3c4ccccc4c(=O)c4ccccc43)c3ccccc23)C(=O)N1 [(R)-3a]
[2]
  IC50: 1000 ± 100 nM
